The target in assay [1] is T1, PRMT5 (Homo sapiens, UniProt O14744).
T1 construct: purchased Viva (custom protein)
Kind of assay: PRMT5 biochemical IC50 assay with no cofactor. As to conditions: PRMT5, no cofactor; read-out: No Cofactor/rel IC50. The text has this:
Table 1 indicates IC50 values (μM) against PRMT5 for exemplary compounds in the presence of SAM as cofactor, with no cofactor, and with MTA as cofactor, respectively (columns 4-6). […] Ki values can be calculated from the IC50 values as described in the Examples section. As detailed in the Examples section, for the assay performed in the presence of SAM, IC50=Ki×1.5 (Ki=IC50/1.5).

Assay [2] has as its system HAP1 MTAP-deleted cell line. Kind of assay: SDMA in-cell western assay, HAP1 MTAP-deleted. To be noted: for pIC50: Homo sapiens; for MTAP intact/deleted ratio: SDMA in-cell western. The format is cell-based. In short, it runs like this:
(§1)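 MTAP-null vs endogenous-MTAP HAP1 isogenic cells; in-cell western SDMA readout; IC50 per line.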

Assay [3] addresses T1, PRMT5. Description: PRMT5 biochemical IC50 assay with MTA as cofactor. To be noted: PRMT5, MTA as cofactor; read-out: MTA IC50.
The target in assay [4] is T1, PRMT5. Description: PRMT5 biochemical IC50 assay with SAM as cofactor. To be noted: PRMT5, SAM as cofactor; read-out: SAM IC50.
Assay [5] deals with HAP1 MTAP-intact cell line. Description: SDMA in-cell western assay, HAP1 MTAP-intact. The class given is cell-based. To be noted: Homo sapiens. In short, it runs like this:
as §1

[6] abbreviates: HAP1, SDMA in-cell western, HAP1 MTAP-deleted, read-out: HAP1 MTAP deleted IC50.
The mark [7] stands for this setting: IC50 ratio HAP1 MTAP-intact / HAP1 MTAP-deleted.
Setting [8] is: HAP1, SDMA in-cell western, HAP1 MTAP-intact, read-out: MTAP HAP1 intact IC50.
The mark [9] stands for this setting: HAP1, SDMA in-cell western, HAP1 MTAP-deleted, read-out: HAP 1 MTAP deleted IC50.
Setting [10] is: IC50 ratio HAP1 MTAP-intact vs HAP1 MTAP-deleted.

pIC50: −log10 of the molar value. Read-outs that look alike come from different tables or passages of the source.

T1 sequence (O14744 whole entry): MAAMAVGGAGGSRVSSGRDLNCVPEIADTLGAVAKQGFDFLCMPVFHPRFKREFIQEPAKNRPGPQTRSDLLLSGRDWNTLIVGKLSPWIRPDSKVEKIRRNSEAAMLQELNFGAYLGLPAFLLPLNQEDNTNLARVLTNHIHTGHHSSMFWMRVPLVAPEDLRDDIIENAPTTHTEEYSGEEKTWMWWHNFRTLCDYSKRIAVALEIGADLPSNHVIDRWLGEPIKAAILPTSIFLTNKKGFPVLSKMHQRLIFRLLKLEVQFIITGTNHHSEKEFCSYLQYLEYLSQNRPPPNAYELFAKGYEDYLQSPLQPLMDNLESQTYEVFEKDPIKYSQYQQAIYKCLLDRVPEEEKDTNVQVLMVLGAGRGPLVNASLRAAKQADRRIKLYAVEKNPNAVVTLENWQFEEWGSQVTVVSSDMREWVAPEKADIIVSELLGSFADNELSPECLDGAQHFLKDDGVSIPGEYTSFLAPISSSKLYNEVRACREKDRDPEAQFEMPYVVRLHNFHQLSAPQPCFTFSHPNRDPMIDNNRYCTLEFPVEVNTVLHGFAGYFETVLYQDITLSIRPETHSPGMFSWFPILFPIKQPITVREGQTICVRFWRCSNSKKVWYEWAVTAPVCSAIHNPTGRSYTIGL
T1 sequence (Q9BQA1 whole entry partner): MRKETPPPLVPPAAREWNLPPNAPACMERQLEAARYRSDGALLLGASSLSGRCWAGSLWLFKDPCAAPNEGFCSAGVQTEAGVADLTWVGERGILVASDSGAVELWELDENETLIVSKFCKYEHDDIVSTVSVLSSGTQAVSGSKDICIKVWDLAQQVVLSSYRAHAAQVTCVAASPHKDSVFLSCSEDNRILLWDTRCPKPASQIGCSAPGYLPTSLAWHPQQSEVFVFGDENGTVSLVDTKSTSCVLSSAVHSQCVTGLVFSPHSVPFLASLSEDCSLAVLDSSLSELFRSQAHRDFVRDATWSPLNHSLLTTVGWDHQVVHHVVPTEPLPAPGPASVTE

In the case of `Cc1cc(NC(=O)C(=O)N2CCCC[C@@H]2C2CCCC2)cnc1N` (single isomer, unassigned) [Compound 336], the pIC50 at PRMT5 [1] is below 6.30; in assay [2] (setting [6]), below 6.00; at PRMT5 [3], below 6.30; on PRMT5 [4] it was below 6.30; in assay [5] (setting [8]) it was below 6.00. Besides, the MTAP intact/deleted ratio result in assay [2] (setting [7]) was “C (an IC50 ratio of less than 3 fold)”.

Consider `CCc1cc(NC(=O)C(=O)N2C[C@H](C)CC[C@H]2c2cc3cn[nH]c3s2)cnc1N` (single isomer, unassigned) [Compound 1055], for which the pIC50 was below 6.30 at PRMT5 [1]; below 6.00 in assay [2] (setting [9]); below 6.30 at PRMT5 [3]; below 6.30 at PRMT5 [4]; below 6.00 in assay [5] (setting [8]). Further, in assay [2] (setting [7]), the MTAP intact/deleted ratio entry was “B (an IC50 ratio greater than or equal to 3 fold but lower than 10 fold)”.

Turning to `CC(=O)N1CCC(c2cccc([C@@H]3CC[C@@H](C)CN3C(=O)C(=O)Nc3cnc(N)c(C)c3)c2)CC1` (single isomer, unassigned) [Compound 331], the pIC50 is below 6.30 on PRMT5 [1]; below 6.00 in assay [2] (setting [6]); below 6.30 on PRMT5 [3]; below 6.30 on PRMT5 [4]; below 6.00 in assay [5] (setting [8]). Moreover, the MTAP intact/deleted ratio result in assay [2] (setting [7]) is “C (an IC50 ratio of less than 3 fold)”.

In the case of `Cc1cc(NC(=O)C(=O)N2C[C@@H](C)CC[C@@H]2C23CC(C(N)=O)(C2)C3)cnc1N` (single isomer, unassigned) [Compound 1061], the pIC50 was below 6.30 on PRMT5 [1]; below 6.00 in assay [2] (setting [6]); below 6.30 on PRMT5 [3]; below 6.30 on PRMT5 [4]; below 6.00 in assay [5] (setting [8]). In addition, the MTAP intact/deleted ratio entry in assay [2] (setting [10]) is “B (an IC50 ratio greater than or equal to 3 fold but lower than 10 fold)”.

As to `COc1ncc(NC(=O)C(=O)N2C[C@@H](C)CC[C@@H]2c2ccc3nn(C)cc3c2)cc1C(N)=O` (single isomer, unassigned) [Compound 1059], the pIC50 on PRMT5 [1] was 6.30 to 7.30; in assay [2] (setting [9]) it was above 7.00; on PRMT5 [3], above 7.30; on PRMT5 [4], 6.30 to 7.30; in assay [5] (setting [8]) it was below 6.00. In addition, the MTAP intact/deleted ratio result in assay [2] (setting [7]) was “A (an IC50 ratio greater than or equal to 10 fold)”.

With `Cc1cc([C@@H]2CC[C@@H](C)CN2C(=O)C(=O)Nc2cncc(C(N)=O)c2)ccc1F` (single isomer, unassigned) [Compound 307], the pIC50 is below 6.30 on PRMT5 [1]; below 6.00 in assay [2] (setting [6]); below 6.30 on PRMT5 [3]; below 6.30 at PRMT5 [4]; below 6.00 in assay [5] (setting [8]). Moreover, in assay [2] (setting [7]), the MTAP intact/deleted ratio entry is recorded as “C (an IC50 ratio of less than 3 fold)”.

Take `Cc1cc(NC(=O)C(=O)N2C[C@@H](C)CC[C@@H]2c2cc[nH]n2)cnc1N` (single isomer, unassigned) [Compound 1071]: the pIC50 at PRMT5 [1] is 6.30 to 7.30; in assay [2] (setting [6]) it was below 6.00; on PRMT5 [3], above 7.30; at PRMT5 [4], 6.30 to 7.30; in assay [5] (setting [8]), below 6.00. For the same compound, the MTAP intact/deleted ratio result in assay [2] (setting [10]) is on record as “C (an IC50 ratio of less than 3 fold)”.

As for `Cc1cc(NC(=O)C(=O)N2C[C@H](C)CC[C@H]2c2cc[nH]n2)cnc1N` (single isomer, unassigned) [Compound 1050], the pIC50 at PRMT5 [1] was below 6.30; in assay [2] (setting [9]), below 6.00; at PRMT5 [3], below 6.30; on PRMT5 [4], below 6.30; in assay [5] (setting [8]) it was below 6.00. Besides, in assay [2] (setting [7]), the MTAP intact/deleted ratio result was “C (an IC50 ratio of less than 3 fold)”.

`Cc1cc(NC(=O)C(=O)N2C[C@@H](C)CC[C@H]2C23CC(C(N)=O)(C2)C3)cnc1N` (single isomer, unassigned) [Compound 1053]: the pIC50 on PRMT5 [1] is below 6.30; in assay [2] (setting [9]), 6.00 to 7.00; at PRMT5 [3], 6.30 to 7.30; at PRMT5 [4], below 6.30; in assay [5] (setting [8]), below 6.00. In addition, the MTAP intact/deleted ratio entry in assay [2] (setting [7]) is given as “A (an IC50 ratio greater than or equal to 10 fold)”.

For `COc1ncc(NC(=O)C(=O)N2C[C@H](C)CC[C@H]2c2ccc3nn(C)cc3c2)cc1C(N)=O` (single isomer, unassigned) [Compound 1051], the pIC50 on PRMT5 [1] is below 6.30; in assay [2] (setting [9]), below 6.00; on PRMT5 [3] it was below 6.30; on PRMT5 [4] it was below 6.30; in assay [5] (setting [8]) it was below 6.00. The MTAP intact/deleted ratio result in assay [2] (setting [7]) is given as “B (an IC50 ratio greater than or equal to 3 fold but lower than 10 fold)”.

Turning to `CNc1cccc([C@H]2CCCCN2C(=O)C(=O)Nc2cncc(C(N)=O)c2)c1` (single isomer, unassigned) [Compound 316], the pIC50 on PRMT5 [1] was below 6.30; in assay [2] (setting [6]), below 6.00; at PRMT5 [3] it was 6.30 to 7.30; at PRMT5 [4] it was below 6.30; in assay [5] (setting [8]), below 6.00. In addition, in assay [2] (setting [7]), the MTAP intact/deleted ratio entry is listed as “C (an IC50 ratio of less than 3 fold)”.

Regarding `COc1ncc(NC(=O)C(=O)N2C[C@H](C)CC[C@H]2c2cccs2)cc1C(N)=O` (single isomer, unassigned) [Compound 310], the pIC50 at PRMT5 [1] was below 6.30; in assay [2] (setting [6]) it was below 6.00; at PRMT5 [3], below 6.30; on PRMT5 [4] it was below 6.30; in assay [5] (setting [8]), below 6.00. Moreover, the MTAP intact/deleted ratio result in assay [2] (setting [7]) is reported as “C (an IC50 ratio of less than 3 fold)”.

Regarding `COc1ncc(NC(=O)C(=O)N2C[C@@H](C)CC[C@H]2C2CCCCC2)cc1C(N)=O` (single isomer, unassigned) [Compound 371], the pIC50 is below 6.30 at PRMT5 [1]; below 6.00 in assay [2] (setting [6]); below 6.30 on PRMT5 [3]; below 6.30 at PRMT5 [4]; below 6.00 in assay [5] (setting [8]). Moreover, the MTAP intact/deleted ratio result in assay [2] (setting [7]) is reported as “C (an IC50 ratio of less than 3 fold)”.

For `Cc1cc(NC(=O)C(=O)N2C[C@H](C)C[C@H](C)[C@H]2c2ccccc2)cnc1N` (single isomer, unassigned) [Compound 343], the pIC50 on PRMT5 [1] is below 6.30; in assay [2] (setting [6]) it was below 6.00; on PRMT5 [3] it was below 6.30; on PRMT5 [4] it was below 6.30; in assay [5] (setting [8]), below 6.00. Moreover, the MTAP intact/deleted ratio entry in assay [2] (setting [7]) is given as “C (an IC50 ratio of less than 3 fold)”.

As to `Cc1cc([C@H]2CC[C@H](C)CN2C(=O)C(=O)Nc2cncc(C(N)=O)c2)cc(C)c1O` (single isomer, unassigned) [Compound 326], the pIC50 is below 6.30 at PRMT5 [1]; below 6.00 in assay [2] (setting [6]); below 6.30 at PRMT5 [3]; below 6.30 on PRMT5 [4]; below 6.00 in assay [5] (setting [8]). Also, in assay [2] (setting [7]), the MTAP intact/deleted ratio result is reported as “C (an IC50 ratio of less than 3 fold)”.

With `C[C@H]1CC[C@H](c2cc(F)c(F)c(Cl)c2)N(C(=O)C(=O)Nc2cncc(C(N)=O)c2)C1` (single isomer, unassigned) [Compound 846], the pIC50 was below 6.30 on PRMT5 [1]; below 6.00 in assay [2] (setting [6]); below 6.30 on PRMT5 [3]; below 6.30 at PRMT5 [4]; below 6.00 in assay [5] (setting [8]). The MTAP intact/deleted ratio result in assay [2] (setting [7]) is “C (an IC50 ratio of less than 3 fold)”.

For `C[C@@H]1CC[C@@H](c2csc3ccccc23)N(C(=O)C(=O)Nc2cncc(C(N)=O)c2)C1` (single isomer, unassigned) [Compound 463], the pIC50 on PRMT5 [1] was 6.30 to 7.30; in assay [2] (setting [6]) it was 6.00 to 7.00; on PRMT5 [3], above 7.30; on PRMT5 [4] it was 6.30 to 7.30; in assay [5] (setting [8]), below 6.00. Besides, in assay [2] (setting [7]), the MTAP intact/deleted ratio result was “A (an IC50 ratio greater than or equal to 10 fold)”.

For the compound `COc1ncc(NC(=O)C(=O)N2C[C@@H](C)CC[C@H]2c2ccccc2)cc1C(N)=O` (single isomer, unassigned) [Compound 322], the pIC50 is below 6.30 at PRMT5 [1]; below 6.00 in assay [2] (HAP1, read-out: HAP1 MTAP deleted IC50); below 6.30 at PRMT5 [3]; below 6.30 on PRMT5 [4]; below 6.00 in assay [5] (HAP1, read-out: MTAP HAP1 intact IC50). Besides, the MTAP intact/deleted ratio entry in assay [2] (setting [7]) was “B (an IC50 ratio greater than or equal to 3 fold but lower than 10 fold)”.

In the case of `CCc1cc(NC(=O)C(=O)N2C[C@@H](C)CC[C@@H]2c2cc3cn[nH]c3s2)cnc1N` (single isomer, unassigned) [Compound 1075], the pIC50 on PRMT5 [1] is above 7.30; in assay [2] (setting [6]), above 7.00; on PRMT5 [3], above 7.30; at PRMT5 [4] it was 6.30 to 7.30; in assay [5] (setting [8]) it was 6.00 to 7.00. In addition, the MTAP intact/deleted ratio entry in assay [2] (setting [10]) is recorded as “A (an IC50 ratio greater than or equal to 10 fold)”.

Consider `COc1ncc(NC(=O)C(=O)N2C[C@@H](C)CC[C@@H]2c2ccc(F)cc2)cc1C(F)F` [Compound 1057, N-[5-(Difluoromethyl)-6-methoxy-3-pyridyl]-2-[(2R,5S)-2-(4-fluorophenyl)-5-methyl-1-piperidyl]-2-oxo-acetamide], for which the pIC50 on PRMT5 [1] was 6.30 to 7.30; in assay [2] (setting [9]), below 6.00; at PRMT5 [3], 6.30 to 7.30; on PRMT5 [4], below 6.30; in assay [5] (setting [8]) it was below 6.00. Besides, in assay [2] (setting [7]), the MTAP intact/deleted ratio result is on record as “B (an IC50 ratio greater than or equal to 3 fold but lower than 10 fold)”.

These data come from US11999727B2 (Tango Therapeutics, Inc., priority 2020, dated 2024).
